Experiments:
[1] = system: encephalitogenic BP10 line; assay: Adoptive EAE: BP10 T-cell line stimulated in vitro with test substance, then injected into naive rats; format: in vivo, rat
Method: Antigen-specific T-cell lines were established from lymph node cells that had been stimulated with myelin basic protein (MBP; 10 μg/ml) for 3 days in stimulation medium as described below. Following stimulation, the T-cell blasts were isolated on LYMPHOPREP™ (Nycomed Pharma, Oslo, Norway) and seeded in propagation medium. Propagation medium was identical to stimulation medium without autologous serum, but supplemented with fetal calf serum 10% and T-cell growth factors from the supernatant of Con A stimulated spleen cells 10% (Mor et al. (1990) J Clin Invest, 85, 1594-1598). Animals were injected intra-peritoneally with 107 MBP-stimulated T cells, following 6-8 cycles of in vitro stimulations. It is known that MBP-reactive lines undergo a reduction in pathogenicity after 6 or more in vitro stimulations. In some experiments the BP10 line was stimulated with phorbol myristate acetate (PMA; 50 ng/ml) and ionomycin (500 ng/ml) for 3 days in stimulation medium, without antigen-presenting cells.
Active EAE was induced by subcutaneous injection of 25 μg guinea-pig MBP (GpMBP) in complete Freund's adjuvant (CFA). […] Adoptive EAE was transferred by intra-peritoneal injection of guinea-pig MBP-activated cells of the BP10 line as described in Mor et al. (1993) J Clin Invest, 92, 2199-2206. […] Clinical scoring was: +1, paralysis of tail; +1.5, paresis of posterior paws and ataxia; +2, paraplegia; +3, paralysis extending to thoracic spine; +4, a moribund state.
Treatment with cefuroxime in vivo could affect many different host agents involved in EAE or AA as well as influencing the rats' bacterial flora. To test whether the antibiotic might directly modify the behavior of effector T cells, an encephalitogenic T-cell line was stimulated in the presence or absence of cefuroxime in vitro. The weakly encephalitogenic BP10 line was used, and was stimulated for 3 days with MBP in the presence or absence of cefuroxime (50 μg/ml). The activated T cells were then washed to remove the antibiotic, the T cells were injected intra-peritoneally into naïve recipient rats (10^7 per rat), and EAE was scored. The BP10 line at later stimulations was used, when its pathogenic potential is reduced, allowing to detect both suppression and enhancement of disease. […] To rule out antigen presenting cells (APC) as the target of the beta-lactam antibiotic, the encephalitogenic BP10 line was stimulated without APC using PMA (50 ng/ml) and Ionomycin (500 ng/ml) in the presence or absence of cefuroxime.
Additional beta-lactam antibiotics were tested for their effect on the adoptive transfer of EAE.
A control group was injected with the untreated line.

CD4+ human T cells = assay: Human Autoimmune and Inflammatory Response Gene Array, anti-CD3-stimulated T cells with or without antibiotic; format: cell-based; conditions: 120 min anti-CD3; for % decrease by Cef: cefuroxime 50 μg/ml, ±SD, relative to control
Method: T cells were purified from the peripheral bloods of healthy human donors (Blood Bank, Sheba Medical center). The whole blood was incubated (20 min, 22° C.) with RosetteSep™ human T cell enrichment mixture (StemCell Technologies, Vancouver, Canada). The remaining unsedimented cells were then loaded onto lymphocyte separation medium (ICN Biomedicals, Irvine, Calif.), isolated by density centrifugation, and washed with PBS. […] In a second round of purification, CD3^+ T cells were labeled for selection with a magnetically coupled mAb against CD4 (Miltenyi Biotec, Auburn, Calif.).
Human CD4 T cells were isolated as described, and incubated in 24 well plates (Nunc), 4×10^6 cells/ml with plate bound anti-human CD3 (OKT3) at 2 μg/ml. The stimulation was performed in RPMI medium supplemented with 0.1% BSA. […] RNA was extracted from samples and used to prepare probes for gene array in accord with the manufacturer's instructions (SuperArray Bioscience, Frederick, Md.). Adequate labeling of the probes was tested before hybridization. Three healthy donors were tested in stimulation with cefuroxime. The membranes were analyzed online with the Image Data Acquisition and Expression Analysis (SuperArray Bioscience).
The Human Autoimmune and Inflammatory Response Gene Array (SuperArray Bioscience corporation, Frederick, Md., USA) was used for analysis of gene expression by the T cells. This array contains 367 genes including cytokines, chemokines and their receptors, transcription factors and signaling proteins. […] Analysis of the results was performed using the GEArray analysis program. […] To verify the results detected by the gene array study, a panel of six genes was designed and tested by real-time PCR: CCR4, ACVR2, JAK1, STAT4, TLR2 and NFKBIE. The cDNA that was used was prepared from the same RNA used for the gene array experiment.

## CO/N=C(\C(=O)N[C@@H]1C(=O)N2C(C(=O)O)=C(COC(N)=O)CS[C@H]12)c1ccco1 [cefuroxime]
[1]; BP10 line stimulated 3 days with MBP in presence of 50 μg/ml antibiotic, 10^7 cells per rat
  severity of adoptive EAE in recipient rats: markedly enhanced the manifestations of EAE
[1]; BP10 line stimulated 3 days with MBP in presence of 50 μg/ml antibiotic, 10^7 cells per rat, listed as Cefuroxime
  severity of adoptive EAE in recipient rats: enhances the pathogenicity of the BP10 line
[1]; BP10 line stimulated without APC using PMA (50 ng/ml) and Ionomycin (500 ng/ml)
  severity of adoptive EAE in recipient rats: significantly more severe
[1]; dose-response, BP10 line stimulated with 5 μg/ml
  severity of adoptive EAE in recipient rats: ineffective
[1]; dose-response, BP10 line stimulated with 25 μg/ml
  severity of adoptive EAE in recipient rats: enhancing effect similar to that of 50 μg/ml
CD4+ human T cells; array of 367 genes, 50 μg/ml
  number of genes down-regulated: Fifty-seven
CD4+ human T cells; gene ACTB
  % decrease by Cef: 49 ± 11%
CD4+ human T cells; gene ACVR1
  % decrease by Cef: 42 ± 0.7%
CD4+ human T cells; gene ACVR2
  % decrease by Cef: 60 ± 14.8%
CD4+ human T cells; gene CCL5
  % decrease by Cef: 21 ± 5.6%
CD4+ human T cells; gene CCL11
  % decrease by Cef: 18 ± 6.6%
CD4+ human T cells; gene CCR4
  % decrease by Cef: 39 ± 2%
CD4+ human T cells; gene CCR6
  % decrease by Cef: 53 ± 5.6%
CD4+ human T cells; gene CCR7
  % decrease by Cef: 38 ± 8.1%
CD4+ human T cells; gene CD28
  % decrease by Cef: 51 ± 2.1%
CD4+ human T cells; gene CD40LG
  % decrease by Cef: 33 ± 7.1%
CD4+ human T cells; gene CREB1
  % decrease by Cef: 19 ± 4.9%
CD4+ human T cells; gene CREBBP
  % decrease by Cef: 40 ± 9.9%
CD4+ human T cells; gene CXCL10
  % decrease by Cef: 39 ± 3%
CD4+ human T cells; gene EGR3
  % decrease by Cef: 38 ± 2.8%
CD4+ human T cells; gene GFI1
  % decrease by Cef: 45 ± 14%
CD4+ human T cells; gene HRAS
  % decrease by Cef: 30 ± 9.8%
CD4+ human T cells; gene IL1B
  % decrease by Cef: 54 ± 7.0%
CD4+ human T cells; gene IL2RB
  % decrease by Cef: 50 ± 9.9%
CD4+ human T cells; gene IL2RG
  % decrease by Cef: 57 ± 9.8%
CD4+ human T cells; gene IL9R
  % decrease by Cef: 27.5 ± 3%
CD4+ human T cells; gene IL16
  % decrease by Cef: 50 ± 7.8%
CD4+ human T cells; gene IRAK1
  % decrease by Cef: 44 ± 2.1%
CD4+ human T cells; gene JAK1
  % decrease by Cef: 53 ± 13.4%
CD4+ human T cells; gene JUN
  % decrease by Cef: 49 ± 2.2%
CD4+ human T cells; gene LTA
  % decrease by Cef: 17 ± 10%
CD4+ human T cells; gene MAP2K4
  % decrease by Cef: 52 ± 14.1%
CD4+ human T cells; gene MAP3K1
  % decrease by Cef: 53 ± 12%
CD4+ human T cells; gene MAP3K2
  % decrease by Cef: 36 ± 12%
CD4+ human T cells; gene MAP3K7
  % decrease by Cef: 46 ± 9.9%
CD4+ human T cells; gene MAPK9
  % decrease by Cef: 42 ± 10.9%
CD4+ human T cells; gene NFKB1
  % decrease by Cef: 43 ± 3.5%
CD4+ human T cells; gene NFKB2
  % decrease by Cef: 53 ± 10.6%
CD4+ human T cells; gene NFKBIE
  % decrease by Cef: 63 ± 11%
CD4+ human T cells; gene NFKBIL1
  % decrease by Cef: 54 ± 12.5%
CD4+ human T cells; gene PAK1
  % decrease by Cef: 40 ± 2.4%
CD4+ human T cells; gene PIN1
  % decrease by Cef: 45 ± 12.1%
CD4+ human T cells; gene RANBP5
  % decrease by Cef: 33 ± 3.5%
CD4+ human T cells; gene REL
  % decrease by Cef: 45 ± 1.9%
CD4+ human T cells; gene RFX5
  % decrease by Cef: 36 ± 4.2%
CD4+ human T cells; gene RFXAP
  % decrease by Cef: 27 ± 12%
CD4+ human T cells; gene SDF2
  % decrease by Cef: 28 ± 12%
CD4+ human T cells; gene SELL
  % decrease by Cef: 46 ± 7.0%
CD4+ human T cells; gene SMAD4
  % decrease by Cef: 47 ± 7.0%
CD4+ human T cells; gene SMAD7
  % decrease by Cef: 47 ± 4.2%
CD4+ human T cells; gene SP3
  % decrease by Cef: 39 ± 9.9%
CD4+ human T cells; gene SRF
  % decrease by Cef: 38 ± 1.9%
CD4+ human T cells; gene STAT1
  % decrease by Cef: 32 ± 11%
CD4+ human T cells; gene STAT4
  % decrease by Cef: 47 ± 9.3%
CD4+ human T cells; gene STAT6
  % decrease by Cef: 47 ± 7.9%
CD4+ human T cells; gene TGFBR3
  % decrease by Cef: 44 ± 3.5%
CD4+ human T cells; gene TGIF
  % decrease by Cef: 43 ± 3.5%
CD4+ human T cells; gene TLR2
  % decrease by Cef: 52 ± 14%
CD4+ human T cells; gene TNFRSF11
  % decrease by Cef: 43 ± 2%
CD4+ human T cells; gene TNFα
  % decrease by Cef: 29 ± 8.5%
CD4+ human T cells; gene TRAF5
  % decrease by Cef: 43 ± 2.2%
CD4+ human T cells; gene TRAF6
  % decrease by Cef: 43 ± 3.5%
CD4+ human T cells; gene YY1
  % decrease by Cef: 23 ± 9.1%

Reference: patent US9474744B2, “Beta-lactam compounds for treating diabetes” (STEM CELL MEDICINE LTD., priority 2011, dated 2016)
